We go through one molecule from US20150159141A1, “ISOLATED HUMAN LIVER TUMOR CELL LINE AND METHOD OF AGENT SCREENING” (Industrial Technology Research Institute, priority 2013, published 2015).

In assay [1] the test system is human liver tumor cell line ITRI-H28. The experiment in a line: Cell viability of ITRI-H28 cells after Sorafenib treatment (Alarmablue assay). The settings on record: 48-hour treating period, P value 0.02, read-out: half maximal inhibitory concentration (IC50). In kind it is cell-based. On the procedure: In the experiment, a plurality of plates are prepared with 1×10^4 ITRI-H28 cells seeded respectively thereon and divided into a plurality of groups, and the groups are treated with different concentrations of Sorafenib, such as 30, 15, 7.5, 3.75, 1.88, and 0.94 uM. Next, after a 48-hour treating period, a cell viability of each of the groups is measured by an Alarmablue measurement assay, and results are shown in FIG. 3.
A calculation is done according to the results of FIG. 3, a half maximal inhibitory concentration (IC50) of Sorafenib in the ITRI-H28 cell line are about 2.79±0.41, and a statistical P value is 0.02. According to the above results, the human liver tumor cell line ITRI-H28 has a susceptibility to the HCV-related HCC drug, which is able to use in a HCV-related HCC drug screening. Furthermore, according to the above experiments, the human liver tumor cell line ITRI-H28 has cancer cell properties, which can be used widely in a liver drug screening.

Another assay relates to liver cancer. The settings on record: phase III of human clinical trials; cited from earlier work.

On to `CNC(=O)c1cc(Oc2ccc(NC(=O)Nc3ccc(Cl)c(C(F)(F)F)c3)cc2)ccn1` [Sorafenib], for which the IC50 in assay [1] is around 2790 nM. The “extension of patient survival time” value in the assay on liver cancer was “three”.
